Like-named read-outs stand apart in the source and are kept apart here.
Columns and labels:
GluN1/GluN2C NMDARs = GluN1/GluN2C NMDARs (Rattus norvegicus, UniProt P35439+Q00961); assay: Two-electrode voltage-clamp recordings, Xenopus laevis oocytes expressing GluN1/GluN2C; format: cell-based; settings: saturating glutamate/glycine 100/30 µM; for EC50: mean [95% CI], read-out: EC50 (µM) [conf. int.]; for Emax: mean ± SEM, read-out: Maximal Degree of Modulation (% of control)
Protocol: (§1) cDNAs for rat wild type NMDAR subunits GluN1-1a (GenBank U11418, U08261; hereafter GluN1 or GluN1a), GluN1-1b (U08263, hereafter GluN1b), GluN2A (D13211), GluN2B (U11419), GluN2C (M91563), and GluN2D (L31611, modified as described in [Monyer et al., 1994]) were provided by Drs. S. Heinemann (Salk Institute), S. Nakanishi (Kyoto University), and P. Seeburg (University of Heidelberg). Site-directed mutagenesis was conducted using the QuikChange kit (Agilent Technologies, Santa Clara, CA) following the recommended protocol. DNA sequencing was used to verify all mutations. The amino acid numbering system started with the initiating methionine as residue number one. For expression in Xenopus laevis oocytes, cDNA constructs were linearized by restriction enzymes, and subsequently used to synthesize in vitro cRNAs following the manufacturer’s protocol (mMessage mMachine, Ambion, ThermoFisher Scientific, Waltham, MA).
(§2) Xenopus laevis stage VI oocytes (Ecocyte Biosciences, Austin, TX) were injected as previously described ([Hansen et al., 2013]) 2–7 days prior to recording with cRNA encoding the NMDAR subunits and stored at 15°C in media containing (in mM) 88 NaCl, 2.4 NaHCO3, 1 KCl, 0.33 Ca(NO3)2, 0.41 CaCl2, 0.82 MgSO4, 5 Tris-HCl; pH was adjusted to 7.4 with NaOH and the solution supplemented with 1 U/mL penicillin, 0.1 mg/mL gentamicin sulfate, and 1 μg/mL streptomycin. Two-electrode voltage-clamp recordings were performed at room temperature (21–23°C) using different internal solutions for voltage and current electrodes (0.3 M and 3.0 M KCl, respectively). All extracellular solutions were made from a solution containing (in mM) 90 NaCl, 1 KCl, 10 HEPES, 0.5 BaCl2, 0.01 EDTA (pH 7.4 with NaOH). Experiments were performed using an eight port Modular Valve Positioner (Hamilton Company, Reno, NV) and controlled by custom software (Easy Oocyte, Emory University, Atlanta, GA)to exchange solutions. Oocyte currents were recorded at a holding potential of −40 mV using a two-electrode voltage-clamp amplifier (OC-725B or OC-725C, Warner Instruments, Hamden, CT). […] In MTSEA experiments, fresh MTSEA solutions (0.2 mM) were prepared and utilized in less than 30 min to limit compound degradation.
(§3) Measurements are given as mean ± SEM unless otherwise indicated. The number of replicate experiments used was chosen to ensure a power level of at least 0.80 when α = 0.05 and when detecting appropriate effect sizes. EC50 and IC50 values and confidence intervals reported were calculated by averaging the log(EC50) or log(IC50) value, determining confidence intervals for mean log(EC50) or log(IC50), and converting back to units of molarity. Statistical significance evaluations (α set to 0.05) were performed using a one-way ANOVA with Dunnett’s multiple comparison test, a paired t–test, or other appropriate tests as described.

GluN1/GluN2B NMDARs = GluN1/GluN2B NMDARs (Rattus norvegicus, UniProt P35439+Q00960); assay: Two-electrode voltage-clamp recordings, Xenopus laevis oocytes expressing GluN1/GluN2B; format: cell-based; settings: saturating glutamate/glycine 100/30 µM; for EC50: mean [95% CI], - = not fit, response at 30 µM differed by no more than 15% from control, read-out: EC50 (µM) [conf. int.]; for Emax: mean ± SEM, read-out: Maximal Degree of Modulation (% of control)
Sequence of GluN1/GluN2B NMDARs (Q00960 27-1482, other chains not shown): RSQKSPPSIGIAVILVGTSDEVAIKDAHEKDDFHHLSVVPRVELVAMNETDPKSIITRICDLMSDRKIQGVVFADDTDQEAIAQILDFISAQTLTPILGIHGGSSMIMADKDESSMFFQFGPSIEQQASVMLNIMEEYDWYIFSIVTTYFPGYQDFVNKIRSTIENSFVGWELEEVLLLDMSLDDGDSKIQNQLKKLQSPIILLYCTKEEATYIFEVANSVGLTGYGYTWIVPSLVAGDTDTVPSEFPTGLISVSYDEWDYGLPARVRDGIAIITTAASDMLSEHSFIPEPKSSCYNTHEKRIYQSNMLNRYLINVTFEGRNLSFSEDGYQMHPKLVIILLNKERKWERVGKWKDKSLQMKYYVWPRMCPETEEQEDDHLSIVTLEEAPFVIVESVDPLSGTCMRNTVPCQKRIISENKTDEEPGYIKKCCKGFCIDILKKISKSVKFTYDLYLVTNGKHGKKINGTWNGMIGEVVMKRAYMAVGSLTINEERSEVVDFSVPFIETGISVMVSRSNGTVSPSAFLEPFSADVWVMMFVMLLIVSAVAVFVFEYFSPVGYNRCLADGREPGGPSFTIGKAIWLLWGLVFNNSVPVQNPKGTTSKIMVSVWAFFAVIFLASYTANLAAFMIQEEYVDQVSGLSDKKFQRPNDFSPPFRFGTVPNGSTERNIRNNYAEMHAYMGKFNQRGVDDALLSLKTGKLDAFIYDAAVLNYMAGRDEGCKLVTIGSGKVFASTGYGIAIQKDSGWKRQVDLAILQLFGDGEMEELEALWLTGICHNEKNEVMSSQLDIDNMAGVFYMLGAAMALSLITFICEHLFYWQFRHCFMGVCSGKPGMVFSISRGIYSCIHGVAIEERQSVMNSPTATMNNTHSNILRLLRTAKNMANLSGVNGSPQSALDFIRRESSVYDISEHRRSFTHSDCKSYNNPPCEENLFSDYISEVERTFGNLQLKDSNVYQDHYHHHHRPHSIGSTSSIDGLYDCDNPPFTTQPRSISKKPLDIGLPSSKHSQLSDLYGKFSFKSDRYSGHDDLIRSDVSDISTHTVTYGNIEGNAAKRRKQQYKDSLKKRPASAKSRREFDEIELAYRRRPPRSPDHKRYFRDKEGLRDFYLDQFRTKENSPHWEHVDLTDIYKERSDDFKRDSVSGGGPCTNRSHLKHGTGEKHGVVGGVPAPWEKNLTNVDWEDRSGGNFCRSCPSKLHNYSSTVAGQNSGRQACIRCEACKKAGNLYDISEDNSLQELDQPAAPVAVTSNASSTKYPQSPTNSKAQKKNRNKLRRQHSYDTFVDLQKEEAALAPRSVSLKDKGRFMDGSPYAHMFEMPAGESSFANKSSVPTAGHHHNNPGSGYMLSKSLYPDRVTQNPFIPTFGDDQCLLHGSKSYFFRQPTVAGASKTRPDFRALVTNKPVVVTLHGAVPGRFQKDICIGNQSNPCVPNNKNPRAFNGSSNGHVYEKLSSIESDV
Protocol: as §1, §2, §3

GluN1/GluN2D NMDARs = GluN1/GluN2D NMDARs (Rattus norvegicus, UniProt P35439+Q62645); assay: Two-electrode voltage-clamp recordings, Xenopus laevis oocytes expressing GluN1/GluN2D; format: cell-based; settings: for Emax: mean ± SEM, read-out: Maximal Degree of Modulation (% of control)
Protocol: cDNAs for rat wild type NMDAR subunits GluN1-1a (GenBank U11418, U08261; hereafter GluN1 or GluN1a), GluN1-1b (U08263, hereafter GluN1b), GluN2A (D13211), GluN2B (U11419), Glu[…]), and Glu[…], modified as described in [Monyer et al., 1994]) were provided by Drs. S. Heinemann (Salk Institute), S. Nakanishi (Kyoto University), and P. Seeburg (University of Heidelberg). Site-directed mutagenesis was conducted using the QuikChange kit (Agilent Technologies, Santa Clara, CA) following the recommended protocol. DNA sequencing was used to verify all mutations. The amino acid numbering system started with the initiating methionine as residue number one. For expression in Xenopus laevis oocytes, cDNA constructs were linearized by restriction enzymes, and subsequently used to synthesize in vitro cRNAs following the manufacturer's protocol (mMessage mMachine, Ambion, ThermoFisher Scientific, Waltham, MA). […] All extracellular solutions were made from a solution containing (in mM) 90 NaCl, 1 KCl, 10 HEPES, 0.5 BaCl2, 0.01 EDTA (pH 7.4 with NaOH). Experiments were performed using an eight port Modular Valve Positioner (Hamilton Company, Reno, NV) and controlled by custom software (Easy Oocyte, Emory University, Atlanta, GA)to exchange solutions. Oocyte currents were recorded at a holding potential of -40 mV using a two-electrode voltage-clamp amplifier (OC-725B or OC-725C, Warner Instruments, Hamden, CT). […] Measurements are given as mean ± SEM unless otherwise indicated. […] EC50 and IC50 values and confidence intervals reported were calculated by averaging the log(EC50) or log(IC50) value, determining confidence intervals for mean log(EC50) or log(IC50), and converting back to units of molarity. Statistical significance evaluations (α set to 0.05) were performed using a one-way ANOVA with Dunnett's multiple comparison test, a paired t-test, or other appropriate tests as described.

GluN1/GluN2A NMDARs = GluN1/GluN2A NMDARs (Rattus norvegicus, UniProt P35439+Q00959); assay: Two-electrode voltage-clamp recordings, Xenopus laevis oocytes expressing GluN1/GluN2A; format: cell-based; settings: saturating glutamate/glycine 100/30 µM; for EC50: mean [95% CI], - = not fit, response at 30 µM differed by no more than 15% from control, read-out: EC50 (µM) [conf. int.]; for Emax: mean ± SEM, read-out: Maximal Degree of Modulation (% of control)
Sequence of GluN1/GluN2A NMDARs (Q00959 23-1464, other chains not shown): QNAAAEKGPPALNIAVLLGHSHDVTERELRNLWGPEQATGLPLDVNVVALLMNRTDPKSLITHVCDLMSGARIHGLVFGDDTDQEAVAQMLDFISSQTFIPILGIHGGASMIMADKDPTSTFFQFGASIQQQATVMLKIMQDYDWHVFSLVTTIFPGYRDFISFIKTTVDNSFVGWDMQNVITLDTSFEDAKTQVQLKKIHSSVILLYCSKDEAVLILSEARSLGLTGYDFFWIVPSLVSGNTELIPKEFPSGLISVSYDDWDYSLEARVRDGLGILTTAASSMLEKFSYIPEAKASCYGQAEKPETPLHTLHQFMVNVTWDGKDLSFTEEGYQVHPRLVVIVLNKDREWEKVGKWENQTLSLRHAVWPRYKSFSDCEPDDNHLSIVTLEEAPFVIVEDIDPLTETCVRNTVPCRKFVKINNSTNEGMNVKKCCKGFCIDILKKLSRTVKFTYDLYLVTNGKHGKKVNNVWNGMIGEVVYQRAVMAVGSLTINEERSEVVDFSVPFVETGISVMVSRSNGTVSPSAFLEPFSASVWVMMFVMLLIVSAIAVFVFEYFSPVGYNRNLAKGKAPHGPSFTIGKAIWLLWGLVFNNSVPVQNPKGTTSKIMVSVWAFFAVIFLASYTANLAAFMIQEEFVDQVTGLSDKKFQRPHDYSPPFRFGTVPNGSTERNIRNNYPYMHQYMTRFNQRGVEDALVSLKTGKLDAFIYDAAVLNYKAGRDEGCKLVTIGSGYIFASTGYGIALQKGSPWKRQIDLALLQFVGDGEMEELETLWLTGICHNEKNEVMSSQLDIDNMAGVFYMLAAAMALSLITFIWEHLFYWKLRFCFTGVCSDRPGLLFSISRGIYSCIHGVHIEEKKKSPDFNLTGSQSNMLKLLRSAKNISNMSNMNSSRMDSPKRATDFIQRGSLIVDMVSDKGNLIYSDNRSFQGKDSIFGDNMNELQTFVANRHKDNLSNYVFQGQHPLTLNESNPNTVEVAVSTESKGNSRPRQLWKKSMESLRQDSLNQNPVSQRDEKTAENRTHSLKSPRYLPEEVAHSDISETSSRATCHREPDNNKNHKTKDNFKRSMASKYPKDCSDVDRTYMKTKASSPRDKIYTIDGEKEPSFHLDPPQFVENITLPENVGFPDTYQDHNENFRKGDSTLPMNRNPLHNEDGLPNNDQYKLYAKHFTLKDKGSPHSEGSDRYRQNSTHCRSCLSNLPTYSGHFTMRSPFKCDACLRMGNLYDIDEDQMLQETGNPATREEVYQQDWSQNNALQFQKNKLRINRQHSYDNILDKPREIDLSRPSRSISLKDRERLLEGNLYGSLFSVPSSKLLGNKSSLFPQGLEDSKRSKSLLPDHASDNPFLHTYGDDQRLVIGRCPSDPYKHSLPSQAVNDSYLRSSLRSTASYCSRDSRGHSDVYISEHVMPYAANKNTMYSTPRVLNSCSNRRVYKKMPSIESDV
Protocol: as §1, §2, §3

NMDAR = test system: NMDAR; parameters: method as in Kew et al., 1996; settings: ref Kew et al., 1996; cited from earlier work
[1] = saturating glutamate/glycine 100/30 µM, mean [95% CI], read-out: EC50 (µM) [conf. int.]
[2] = saturating glutamate/glycine 100/30 µM

Sequence of GluN1/GluN2C NMDARs (Q00961 20-1237, other chains not shown): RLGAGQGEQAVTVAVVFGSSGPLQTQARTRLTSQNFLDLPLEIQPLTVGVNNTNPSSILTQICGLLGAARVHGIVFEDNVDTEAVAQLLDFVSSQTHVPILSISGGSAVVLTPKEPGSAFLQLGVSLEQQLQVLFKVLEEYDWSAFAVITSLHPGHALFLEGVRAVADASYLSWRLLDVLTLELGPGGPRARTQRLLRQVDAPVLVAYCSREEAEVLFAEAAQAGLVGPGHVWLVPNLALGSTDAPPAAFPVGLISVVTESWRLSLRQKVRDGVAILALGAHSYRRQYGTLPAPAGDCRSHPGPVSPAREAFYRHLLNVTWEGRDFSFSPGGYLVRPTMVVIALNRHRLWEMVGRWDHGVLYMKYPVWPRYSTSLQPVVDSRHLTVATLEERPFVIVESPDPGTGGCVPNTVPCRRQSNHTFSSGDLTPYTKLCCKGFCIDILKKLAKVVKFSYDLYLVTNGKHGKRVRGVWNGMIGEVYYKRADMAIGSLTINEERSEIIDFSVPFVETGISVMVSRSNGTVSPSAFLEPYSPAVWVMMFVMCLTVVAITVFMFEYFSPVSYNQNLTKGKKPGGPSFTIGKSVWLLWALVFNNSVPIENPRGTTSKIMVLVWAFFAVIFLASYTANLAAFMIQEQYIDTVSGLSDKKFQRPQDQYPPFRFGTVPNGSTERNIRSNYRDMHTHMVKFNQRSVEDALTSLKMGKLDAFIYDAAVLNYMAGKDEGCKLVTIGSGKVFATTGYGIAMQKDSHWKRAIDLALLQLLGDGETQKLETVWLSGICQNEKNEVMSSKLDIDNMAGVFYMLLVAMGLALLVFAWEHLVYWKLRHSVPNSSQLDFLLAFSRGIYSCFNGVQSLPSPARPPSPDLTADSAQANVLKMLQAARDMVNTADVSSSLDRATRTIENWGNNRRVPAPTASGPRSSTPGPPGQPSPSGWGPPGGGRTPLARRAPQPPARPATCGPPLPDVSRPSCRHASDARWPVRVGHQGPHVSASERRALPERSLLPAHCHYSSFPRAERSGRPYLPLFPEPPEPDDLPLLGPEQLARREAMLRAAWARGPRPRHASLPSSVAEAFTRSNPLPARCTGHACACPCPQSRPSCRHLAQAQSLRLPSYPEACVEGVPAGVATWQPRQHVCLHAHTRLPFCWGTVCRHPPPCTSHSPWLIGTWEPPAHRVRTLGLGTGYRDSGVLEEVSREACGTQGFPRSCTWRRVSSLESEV

| EC50 (GluN1/GluN2C NMDARs) [µM] | Emax (GluN1/GluN2C NMDARs) [%] | EC50 (GluN1/GluN2B NMDARs) [µM] | Emax (GluN1/GluN2B NMDARs) [%] | melting point | EC50 (GluN1/GluN2D NMDARs; [1]) [µM] | EC50 (GluN1/GluN2A NMDARs) [µM] | Emax (GluN1/GluN2A NMDARs) [%] | Emax (GluN1/GluN2D NMDARs; [2]) [%] | Compound | EC50 (GluN1/GluN2D NMDARs; read-out: Control Glutamate EC50 (µM) [conf. int.], glutamate EC50 in 30 µM glycine, absence of EU1794-27) [µM] | residual current at saturating levels (NMDAR) |
| --- | --- | --- | --- | --- | --- | --- | --- | --- | --- | --- | --- |
| 4 | 140 | 2.5 | 71 | 152 to 154 °C | 9.3 | 18 | 36 | – | CC(C)OC(=O)c1c(NC(=O)CC2SC(=N)NC2=O)sc2c1CCCC2 (stereo not shown) [EU1794-5, isopropyl 2-(2-(2-imino-4-oxothiazolidin-5-yl)acetamido)-4,5,6,7-tetrahydrobenzo[b]thiophene-3-carboxylate] | – | – |
| 0.74 | 32 | 1.1 | 43 | 229 °C (dec.) | 0.43 | 1.1 | 19 | 46 | CC1CCc2c(sc(NC(=O)CC3SC(=N)NC3=O)c2C(=O)OC(C)C)C1 (stereo not shown) [EU1794-19, isopropyl 2-(2-(2-imino-4-oxothiazolidin-5-yl)acetamido)-6-methyl-4,5,6,7-tetrahydrobenzo[b]thiophene-3-carboxylate] | – | – |
| 0.77 | 180 | 1 | 220 | – | 1 | > 30 | – | 250 | N=C1NC(=O)C(CC(=O)Nc2sc3c(c2C(=O)OCc2ccccc2)CCCC3)S1 (stereo not shown) [EU1794-25, benzyl 2-(2-(2-imino-4-oxothiazolidin-5-yl)acetamido)-4,5,6,7-tetrahydrobenzo[b]thiophene-3-carboxylate] | – | – |
| 3.8 | 130 | 1.4 | 140 | – | 5.7 | 3.7 | 59 | 166 | CCCCOC(=O)c1c(NC(=O)CC2SC(=N)NC2=O)sc2c1CCCC2 (stereo not shown) [EU1794-29, butyl 2-(2-(2-imino-4-oxothiazolidin-5-yl)acetamido)-4,5,6,7-tetrahydrobenzo[b]thiophene-3-carboxylate] | – | – |
| – | – | – | – | – | – | – | – | – | N[C@@H](CCC(=O)O)C(=O)O [Glutamate, reference compound] | 0.21 | – |
| – | – | – | – | – | – | – | – | – | CC(C(O)c1ccc(O)cc1)N1CCC(Cc2ccccc2)CC1 (stereo not shown) [ifenprodil] | – | ~ 10% |

From article PMC5967867, “An NMDAR positive and negative allosteric modulator series share a binding site and are interconverted by methyl groups” (eLife, 2018)
